Structures are written as SMILES.

Results on 19 molecules are retold here after US6762186B2, “Substituted imidazoles as dual histamine H1 and H3 agonists or antagonists” (Schering Corporation, priority 2000, dated 2004).

Assay [1] has as its target T1, H3 receptors (Cavia porcellus, UniProt Q9JI35).
T1 construct: The source of the H3 receptors in this experiment was guinea pig brain; from tissue; host or cells: guinea pig brain membranes
Kind of assay: H3-Receptor Binding Assay ([3H]R-α-methyl histamine or [3H]Nα-methyl histamine, guinea pig brain membranes). As to conditions: for Ki: HCl salt of the indicated compounds; for inhibition at 2 µg/mL: final concentration 2 μg/ml, HCl salt. As for the experimental part: General Procedure for H3-Receptor Binding Assay
The source of the H3 receptors in this experiment was guinea pig brain. The animals weighed 400-600 g. The brain tissue was homogenized with a solution of 50 mM Tris, pH 7.5. The final concentration of tissue in the homogenization buffer was 10% w/v. The homogenates were centrifuged at 1,000×g for 10 min. in order to remove clumps of tissue and debris. The resulting supernatants were then centrifuged at 50,000×g for 20 min. in order to sediment the membranes, which were next washed three times in homogenization buffer (50,000×g for 20 min. each). The membranes were frozen and stored at −70° C. until needed.
All compounds to be tested were dissolved in DMSO and then diluted into the binding buffer (50 mM Tris, pH 7.5) such that the final concentration was 2 μg/ml with 0.1% DMSO. Membranes were then added (400 μg of protein) to the reaction tubes. The reaction was started by the addition of 3 nM [^3H]R-α-methyl histamine (8.8 Ci/mmol) or 3 nM [^3H]N^α-methyl histamine (80 Ci/mmol) and continued under incubation at 30° C. for 30 min. Bound ligand was separated from unbound ligand by filtration, and the amount of radioactive ligand bound to the membranes was quantitated by liquid scintillation spectrometry. All incubations were performed in duplicate and the standard error was always less than 10%. Compounds that inhibited more than 70% of the specific binding of radioactive ligand to the receptor were serially diluted to determine a Ki (nM). The results are given in Table 1 for the HCl salt of the indicated compounds.

The target in assay [2] is T2, histamine H1 receptor (Rattus norvegicus, UniProt P31390).
T2 construct: The tissue source was male Sprague-Dawley rat brain; tissue Rockland Corporation, Gilbertsville, Pa; host or cells: male Sprague-Dawley rat brain membranes
T2 sequence (P31390 whole entry): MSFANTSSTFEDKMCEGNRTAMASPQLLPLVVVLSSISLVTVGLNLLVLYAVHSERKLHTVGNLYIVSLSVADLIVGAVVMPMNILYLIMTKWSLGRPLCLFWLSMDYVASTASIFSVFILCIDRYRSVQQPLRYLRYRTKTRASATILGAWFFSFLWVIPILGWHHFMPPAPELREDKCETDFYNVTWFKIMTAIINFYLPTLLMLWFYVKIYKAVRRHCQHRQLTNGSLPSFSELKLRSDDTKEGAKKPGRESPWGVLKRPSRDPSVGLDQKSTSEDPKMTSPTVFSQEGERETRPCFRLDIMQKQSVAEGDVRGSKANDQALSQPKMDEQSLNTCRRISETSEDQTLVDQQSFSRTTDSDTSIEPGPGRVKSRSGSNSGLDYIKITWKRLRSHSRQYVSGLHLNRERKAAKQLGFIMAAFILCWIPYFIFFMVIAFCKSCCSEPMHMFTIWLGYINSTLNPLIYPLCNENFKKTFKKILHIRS
The assay is described as follows: H1-Receptor Binding Assay ([3H]pyrilamine, rat brain membranes). As to conditions: for Ki: Cheng-Prusoff from IC50, HCl salt; for inhibition at 1 µg/mL: HCl salt. The text has this:
General Procedure for H1-Receptor Binding Assay
The procedure used was based on that disclosed in V. T. Tran et al, “Histamine H1 receptors identified in mammalian brain membranes with [H-3]mepyramine”, Proc. Natl. Acad. Sci. U.S.A. 75 (1978) 6290-6294.
I. Tissue preparation protocol for histamine H1 receptor binding assay:
1. The tissue source was male Sprague-Dawley rat brain. These were purchased stripped and frozen (available from Rockland Corporation, Gilbertsville, Pa.). The buffer used was ice-cold 50 mM Tris-HCl, pH 7.5. (The pH was determined at 25° C.)
2. The brains were spread out on plastic wrap on the benchtop and allowed to thaw for 10-15 min. After this, everything was kept ice-cold.
3. Two brains were put in each 50 ml round bottom centrifuge tube and 25 ml of buffer was added. Then they were broken up with a Polytron (from Brinkmann Instruments, Westbury, N.Y.) equipped with a PT-10 tip at setting 6 for 30 sec.
4. The volume in the tube was brought up to 45 ml and mixed and the particulate material was centrifuged at 1000×g (3000 rpm, SS-34 rotor) for 10 min to remove nuclei and unbroken cells.
5. Pellets were discarded and the supernatants were centrifuged 10 min at 50,000×g (20,000 rpm, SS-34 rotor).
6. The high-speed pellets were resuspended in a volume of Tris buffer equal to the original ([…]), the contents of all tubes were pooled, and a sample was taken for BCA protein assay. The material was aliquotted, 45 ml per round-bottom tube, and the resuspension was recentrifuged. The yield of protein was approximately 20 mg/brain, so there was about 40 mg of protein per tube.
7. Pellets were frozen at −80° C.
II. H1 Histamine receptor binding assay:
1. The compounds for assay were independently solubilized at 1 mg/ml DMSO by vortexing, or if necessary by sonication. The first dilution, 100-fold, was made in 50 mM Tris-HCl, pH 7.5, at room temperature. The three or four subsequent ten-fold serial dilutions were made in 1% DMSO/50 mM Tris-HCl, pH 7.5. Drug solutions and assay plates were kept at room temperature during the course of the assay set up.
2. Test compounds were assayed at four or five concentrations: 1, 0.1, 0.01, 0.001, and 0.0001 μg/ml. Twenty μl of drug solution was pipeted into each of three wells.
3. [^3H]Pyrilamine was diluted approximately 2000-fold with ice-cold […] Tris-HCl, pH 7.5 (to a working concentration of 20-25 nM), and put on ice.
4. A frozen tissue pellet was thawed in a 25° C. water bath, resuspended in 50 mM Tris-HCl, pH 7.5, at 1.7-2 mg/ml by brief break-up on the Polytron, and put on ice.
5. Twenty μl of diluted [^3H]pyrilamine was added to each well.
6. One hundred fifty μl of tissue suspension was added to each well.
7. The top of the plate was covered and it was placed in a 25° C. shaking water bath (about 60 oscillations/min) for 30 min.
8. Samples were filtered on a Tomtec Mach 2 harvester (available from Tomtec Corporation, Orange, Conn.) through a GF/B filter mat (from Wallac, Inc., Gaithersburg, Md.) presoaked in 0.3% polyethylenimine. Each sample was thrice washed with ice-cold 50 mM Tris-HCl, pH 7.5 dried 20 sec on the Tomtec, and dried 3-4 min in a microwave oven on a paper towel. The filter was impregnated with MELTILEX brand wax scintillant (from Wallac Corporation) and counted on a Betaplate scintillation counter (from Wallac Corporation).
9. Specific binding was determined as the difference between total and nonspecific binding. The percent inhibition in the presence of inhibitor or standard was determined using the formula:
[1-(sample binding-nonspecific binding)/specific binding]×100
For compounds that inhibit more than 50% at 1 μg/ml, an IC50 value was interpolated from proximate concentrations. […]

T1 sequence (Q9JI35 whole entry): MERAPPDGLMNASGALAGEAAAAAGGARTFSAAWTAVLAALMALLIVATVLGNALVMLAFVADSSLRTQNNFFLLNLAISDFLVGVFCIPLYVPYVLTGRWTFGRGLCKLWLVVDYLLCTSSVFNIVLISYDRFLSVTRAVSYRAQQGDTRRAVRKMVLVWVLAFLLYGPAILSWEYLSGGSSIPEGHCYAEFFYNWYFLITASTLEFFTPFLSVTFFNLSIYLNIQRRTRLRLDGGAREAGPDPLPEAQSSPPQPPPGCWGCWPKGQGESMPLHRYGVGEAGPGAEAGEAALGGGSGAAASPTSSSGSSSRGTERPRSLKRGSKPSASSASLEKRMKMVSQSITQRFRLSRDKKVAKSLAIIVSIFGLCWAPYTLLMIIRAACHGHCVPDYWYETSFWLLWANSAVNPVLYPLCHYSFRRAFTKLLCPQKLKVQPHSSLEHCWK

For the molecule `c1ccc(C(c2ccccc2)C2CCN(CCCCCc3c[nH]cn3)CC2)cc1`, the Ki in assay [1] was found to be 19 nM; in assay [2] it was 28 nM.
Taken in the same sequence, the figures for `Clc1ccc(C(c2ccccc2)N2CCN(Cc3c[nH]cn3)CC2)cc1` (stereo not shown) were 101 nM and 1.7 nM.
For `O=C(C(c1ccc(Cl)cc1)c1ccc(Cl)cc1)N1CCC(CCc2c[nH]cn2)C1` (stereo not shown), the Ki in assay [1] turned out to be 9.5 nM. In addition, the inhibition at 1 µg/mL in assay [2] was determined as 2%.
Turning to `Clc1ccc(C(c2ccccn2)N2CCN(CCCCCCCNCCCCc3c[nH]cn3)CC2)cc1` (stereo not shown), the Ki came out at 21 nM in assay [1] and 18.5 nM in assay [2].
For `O=C(C(c1ccccc1)c1ccccc1)N1CCC(Cc2c[nH]cn2)CC1` the same measures were 66 nM and 50 nM.
Regarding `Clc1ccc(C(CN2CCC(CCc3c[nH]cn3)C2)c2ccc(Cl)cc2)cc1` (stereo not shown), the Ki in assay [1] was 25 nM. The inhibition at 1 µg/mL in assay [2] was 18%.
For the molecule `O=C(CC(c1ccccc1)c1ccccc1)N1CCN(Cc2c[nH]cn2)CC1`, the inhibition at 2 µg/mL in assay [1] was determined as 15%.
`Clc1ccc(C(CCN2CCN(Cc3c[nH]cn3)CC2)c2ccccn2)cc1` (stereo not shown): the Ki worked out at 130 nM in assay [1] and 25 nM in assay [2].
Taken in the same sequence, the figures for `Clc1ccc(C(c2ccccn2)N2CCN(Cc3c[nH]cn3)CC2)cc1` (stereo not shown) were 73 nM and 5 nM.
As for `O=C(CC(c1ccc(Cl)cc1)c1ccccn1)N1CCN(CCCCc2c[nH]cn2)CC1` (stereo not shown), the Ki in assay [1] worked out at 32 nM. Moreover, the inhibition at 1 µg/mL in assay [2] was found to be 14%.
With `O=C(CC(c1ccc(Cl)cc1)c1ccccn1)N1CCC(Cc2c[nH]cn2)CC1` (stereo not shown), the figures for the Ki in assay [1] and in assay [2] were 0.3 nM and 19 nM, respectively.
For the molecule `Clc1ccc(C(=C2CCN(CCCCCc3c[nH]cn3)CC2)c2ccccn2)cc1`, the figures for the Ki in assay [1] and in assay [2] were 8 nM and 4.5 nM, respectively.
Turning to `Clc1ccc(C(=C2CCN(CCCCc3c[nH]cn3)CC2)c2ccccn2)cc1`, the Ki in assay [1] was 3 nM; in assay [2] it was 4.5 nM.
With `Clc1ccc(C(c2ccccn2)N2CCN(CCCc3c[nH]cn3)CC2)cc1` (stereo not shown), the results for the Ki in assay [1] and in assay [2] were 66 nM and 40 nM, respectively.
Taken in the same sequence, the figures for `Clc1ccc(C(CCN2CCN(CCCCc3c[nH]cn3)CC2)c2ccccn2)cc1` (stereo not shown) were 7 nM and 21 nM.
Consider `c1ccc(C(CCN2CCN(Cc3c[nH]cn3)CC2)c2ccccc2)cc1`, for which the inhibition at 2 µg/mL in assay [1] stood at 62%. Moreover, the Ki in assay [2] turned out to be 80 nM.
With `O=C(COCCN1CCN(C(c2ccccc2)c2ccc(Cl)cc2)CC1)NCCCCc1c[nH]cn1` (stereo not shown), the Ki in assay [1] turned out to be 39 nM; in assay [2], 11 nM.
For `Clc1ccc(C(=C2CCN(CCCCCCc3c[nH]cn3)CC2)c2ccccn2)cc1` the same measures were 11 nM and 3 nM.
Taken in the same sequence, the figures for `Clc1ccc(C(c2ccccn2)N2CCN(CCCCc3c[nH]cn3)CC2)cc1` (stereo not shown) were 39 nM and 5 nM.

One may read the Ki as the equilibrium dissociation constant of an inhibitor or competing ligand from its target. By inhibition is commonly meant the percentage by which the read-out fell short of the control.
